Test results published in patent US20020137929A1, “1 - (3-heterocyclylphenyl) isothiourea, -isourea, -guanidine and -amidine herbicidal agents” (Intellectual Property Department, BASF Aktiengesellschaft, priority 1998, published 2002).

What was measured:
ABUTH (Velvetleaf) = assay: Postemergence herbicidal evaluation; type: in vivo, Abutilon theophrasti; conditions: postemergence
Outline: (§1)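 ~2-wk seedlings; postemergence spray, 40 psi; vehicle 1:1 acetone:water + 0.5% Tween 20; rate ≈0.0156–0.500 kg/ha; greenhouse hold; scored 4–5 wk after treatment, 0–9 scale vs control; repeat tests averaged.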

AMBEL (Ragweed, Common) = assay: Postemergence herbicidal evaluation; type: in vivo, Ambrosia artemisifolia; conditions: postemergence
Outline: as §1

[1] = tested on: IPOHE (Morningglory, Ivyleaf); assay: Postemergence herbicidal evaluation; type: in vivo, Ipomoea hederacea; conditions: postemergence
Outline: as §1

ECHCG (Barnyardgrass) [2] = assay: Postemergence herbicidal evaluation; type: in vivo, Echinochloa crus-galli; conditions: postemergence
Outline: as §1

SETVI (Foxtail, Green) = assay: Postemergence herbicidal evaluation; type: in vivo, Setaria viridis; conditions: postemergence
Outline: as §1

[3] = tested on: GLXMAW (Soybean, Williams); assay: Postemergence herbicidal evaluation; type: in vivo, Glycine max, (L.) Merr. cv Williams; conditions: postemergence
Outline: as §1

[4] = tested on: TRZAWR (Wheat, Winter, cv Riband); assay: Postemergence herbicidal evaluation; type: in vivo, Triticum aestivum; conditions: postemergence
Outline: as §1

CASOB (Sicklepod) = assay: Preemergence herbicidal evaluation; type: in vivo, Cassia obtusifolia; conditions: rated 4-5 weeks after treatment
Outline: (§2)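 Visual 0-9 rating vs control (stand, vigor, malformation, size, chlorosis, overall appearance), scored 4-5 wk after spraying. Seeded soil cups were treated preemergence with compound in aqueous acetone, ~0.0156-0.500 kg/ha equivalent.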

[5] = tested on: CHEAL (Lambsquarters, Common); assay: Preemergence herbicidal evaluation; type: in vivo, Chenopodium album; conditions: rated 4-5 weeks after treatment
Outline: as §2

GALAP (Galium) = assay: Preemergence herbicidal evaluation; type: in vivo, Galium aparine; conditions: rated 4-5 weeks after treatment
Outline: as §2

[6] = tested on: IPOHE (Morningglory, Ivyleaf); assay: Preemergence herbicidal evaluation; type: in vivo, Ipomoea hederacea; conditions: rated 4-5 weeks after treatment
Outline: as §2

ECHCG (Barnyardgrass) [7] = assay: Preemergence herbicidal evaluation; type: in vivo, Echinochloa crus-galli; conditions: rated 4-5 weeks after treatment
Outline: as §2

ZEAMX (Corn, Field) = assay: Preemergence herbicidal evaluation; type: in vivo, Zea mays; conditions: rated 4-5 weeks after treatment
Outline: as §2

[8] = tested on: ECHORC (Watergrass (Calif.)); assay: Postemergence weed control under flooded paddy conditions; type: in vivo, Echinochloa oryzoides; conditions: postemergence weeds, rated 3 to 4 weeks after treatment
Outline: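 Flood-water application, about 0.0313–0.500 kg/ha a.i. in aqueous/acetone 50/50 v/v; water depth 1.5–3 cm throughout. Weeds 3–5 cm, rice 1.5–2.5 leaf. Greenhouse; 0–9 visual rating vs control at 3–4 wk.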

C=CCOC(=O)CC1SC(=Nc2cc(-n3c(=O)cc(C(F)(F)F)n(C)c3=O)c(F)cc2Cl)N(CC=C)C1=O (stereo not shown) [Compound 65, Allyl 3-allyl-2-{(2-chloro-5-[3,6-dihydro-3-methyl-2,6-dioxo-4-(trifluoromethyl)-1(2H)-pyrimidinyl]-4-fluorophenyl}imino}-4-oxo-5-thiazolidineacetate]
ABUTH herbicidal rating (ABUTH (Velvetleaf); rate 0.0158 kg/ha): 9.0 | ABUTH herbicidal rating (ABUTH (Velvetleaf); rate 0.0315 kg/ha): 9.0 | ABUTH herbicidal rating (ABUTH (Velvetleaf); rate 0.0630 kg/ha): 9.0 | AMBEL herbicidal rating (AMBEL (Ragweed, Common); rate 0.0158 kg/ha): 9.0 | AMBEL herbicidal rating (AMBEL (Ragweed, Common); rate 0.0315 kg/ha): 7.0 | AMBEL herbicidal rating (AMBEL (Ragweed, Common); rate 0.0630 kg/ha): 9.0 | IPOHE herbicidal rating ([1]; rate 0.0158 kg/ha): 9.0 | IPOHE herbicidal rating ([1]; rate 0.0315 kg/ha): 9.0 | IPOHE herbicidal rating ([1]; rate 0.0630 kg/ha): 9.0 | ECHCG herbicidal rating (ECHCG (Barnyardgrass) [2]; rate 0.0158 kg/ha): 3.0 | ECHCG herbicidal rating (ECHCG (Barnyardgrass) [2]; rate 0.0315 kg/ha): 7.0 | ECHCG herbicidal rating (ECHCG (Barnyardgrass) [2]; rate 0.0630 kg/ha): 7.0 | SETVI herbicidal rating (SETVI (Foxtail, Green); rate 0.0158 kg/ha): 7.0 | SETVI herbicidal rating (SETVI (Foxtail, Green); rate 0.0315 kg/ha): 7.0 | SETVI herbicidal rating (SETVI (Foxtail, Green); rate 0.0630 kg/ha): 9.0 | GLXMAW herbicidal rating ([3]; rate 0.0158 kg/ha): 7.5 | GLXMAW herbicidal rating ([3]; rate 0.0315 kg/ha): 8.0 | GLXMAW herbicidal rating ([3]; rate 0.0630 kg/ha): 7.5 | TRZAWR herbicidal rating ([4]; rate 0.0158 kg/ha): 4.0 | TRZAWR herbicidal rating ([4]; rate 0.0315 kg/ha): 7.0 | TRZAWR herbicidal rating ([4]; rate 0.0630 kg/ha): 7.0 | Preemergence herbicidal rating CASOB (CASOB (Sicklepod); rate 0.0156 kg/ha): 0.0 | Preemergence herbicidal rating CASOB (CASOB (Sicklepod); rate 0.0313 kg/ha): 0.0 | Preemergence herbicidal rating CASOB (CASOB (Sicklepod); rate 0.0625 kg/ha): 1.0 | Preemergence herbicidal rating CASOB (CASOB (Sicklepod); rate 0.1250 kg/ha): 1.0 | Preemergence herbicidal rating CASOB (CASOB (Sicklepod); rate 0.2500 kg/ha): 2.0 | Preemergence herbicidal rating CHEAL ([5]; rate 0.0156 kg/ha): 9.0 | Preemergence herbicidal rating CHEAL ([5]; rate 0.0313 kg/ha): 9.0 | Preemergence herbicidal rating CHEAL ([5]; rate 0.0625 kg/ha): 9.0 | Preemergence herbicidal rating CHEAL ([5]; rate 0.1250 kg/ha): 9.0 | Preemergence herbicidal rating CHEAL ([5]; rate 0.2500 kg/ha): 9.0 | Preemergence herbicidal rating GALAP (GALAP (Galium); rate 0.0156 kg/ha): 0.0 | Preemergence herbicidal rating GALAP (GALAP (Galium); rate 0.0313 kg/ha): 0.0 | Preemergence herbicidal rating GALAP (GALAP (Galium); rate 0.0625 kg/ha): 0.0 | Preemergence herbicidal rating GALAP (GALAP (Galium); rate 0.1250 kg/ha): 1.0 | Preemergence herbicidal rating GALAP (GALAP (Galium); rate 0.2500 kg/ha): 9.0 | Preemergence herbicidal rating IPOHE ([6]; rate 0.0156 kg/ha): 0.0 | Preemergence herbicidal rating IPOHE ([6]; rate 0.0313 kg/ha): 0.0 | Preemergence herbicidal rating IPOHE ([6]; rate 0.0625 kg/ha): 1.0 | Preemergence herbicidal rating IPOHE ([6]; rate 0.1250 kg/ha): 9.0 | Preemergence herbicidal rating IPOHE ([6]; rate 0.2500 kg/ha): 7.0 | Preemergence herbicidal rating ECHCG (ECHCG (Barnyardgrass) [7]; rate 0.0156 kg/ha): 0.0 | Preemergence herbicidal rating ECHCG (ECHCG (Barnyardgrass) [7]; rate 0.0313 kg/ha): 0.0 | Preemergence herbicidal rating ECHCG (ECHCG (Barnyardgrass) [7]; rate 0.0625 kg/ha): 0.0 | Preemergence herbicidal rating ECHCG (ECHCG (Barnyardgrass) [7]; rate 0.1250 kg/ha): 2.0 | Preemergence herbicidal rating ECHCG (ECHCG (Barnyardgrass) [7]; rate 0.2500 kg/ha): 5.0 | Preemergence herbicidal rating ZEAMX (ZEAMX (Corn, Field); rate 0.0156 kg/ha): 0.0 | Preemergence herbicidal rating ZEAMX (ZEAMX (Corn, Field); rate 0.0313 kg/ha): 0.0 | Preemergence herbicidal rating ZEAMX (ZEAMX (Corn, Field); rate 0.0625 kg/ha): 1.0 | Preemergence herbicidal rating ZEAMX (ZEAMX (Corn, Field); rate 0.1250 kg/ha): 2.0 | Preemergence herbicidal rating ZEAMX (ZEAMX (Corn, Field); rate 0.2500 kg/ha): 4.0 | Herbicidal rating ECHORC ([8]; Rate 0.0313 kg/ha): 5.0 | Herbicidal rating ECHORC ([8]; Rate 0.0625 kg/ha): 5.0 | Herbicidal rating ECHORC ([8]; Rate 0.1250 kg/ha): 6.0 | Herbicidal rating ECHORC ([8]; Rate 0.2500 kg/ha): 7.0
